Measured values from patent US5958966A, “Treatment of aberrant cellular states with biomodulators” (University of New Mexico, priority 1995, dated 1999).
“Also recorded” adds a separate entry of the source. Like-named read-outs stand apart in the source and are kept apart here.

Tests used:
Canine glioma cells = test: generation time of canine glioma cells (Formula II compound); type: cell-based; settings: for Tg: control 18.6
Method: The cells were harvested every 72 hours after the controls had reached 85% confluency. Generation time (Tg) was determined as the number of hours required for the cell population to double.
Mean of triplicate determinations. Canine glioma cells were grown under conditions to promote exponential growth characteristics; 2×10^5cells in a T-25 flask. The cells were harvested every 72 hours after the controls had reached approximately 85% confluency. The drug was added at the initiation of culture in DMSO, the control cultures had just DMSO. The drug concentration was adjusted with DMS0 so that the final concentration of DMS0 was always 0.5%.

[1] = test system: human peripheral blood leukocytes (HPBL); test: stimulation / inhibition of IgG production in HPBL; type: cell-based; settings: for activation at 0.1 µM: Homo sapiens, Leukocyte, 90 h
Method: Human peripheral blood leukocytes were cultured in a standard tissue culture medium. Aliquots of these cultured cells (1,000,000 cells/ml medium) were cultured for 6 hours, and the specified amount of Formula II compound was added; the cells were then cultured for an additional 90 hours. Sheep red blood cells (SRBC) conditioned with class-specific (IpG) goat anti-human antiserum (1:400) for 2 hours; then guinea pig complement (2%) for 2 hours were conjugated to Protein A as described in detail in Radioimmunoimaging and Radioimmunotherapy, Eds. S. W. Burchiel and B. A. Rhodes, Elsevier Science Publishing; New York, 1983, pp. 125-127, incorporated herein by reference.

[2] = test system: human colon carcinoma cell line (LS-174); test: generation time of LS-174 human colon carcinoma cells; type: cell-based; settings: for Tg: control 26.5
Method: The procedure of Example VA, above, was repeated except a human colon carcinoma cell line (LS-174) was used instead of the canine glioma cell line.
Mean of triplicate determinations. LS-174 cells (human colon carcinoma) were grown under conditions to promote exponential growth characteristics; 2×10^5 cells in a T-25 flask. The cells were harvested every 72 hours after the controls had reached approximately 85% confluency. The drug was added at the initiation of culture in DMSO, the control cultures had just DMS0. The drug concentration was adjusted with DMSO so that the final concentration of DMS0 was always 0.5%.

canine glioma tumors = canine glioma tumors in nude rats; type: in vivo, nude rat
Method: C57 BL/6 mice were injected I.M. with B-16 melanoma cells, maintained in culture in the right flank or shoulder. Tumor growth was monitored on a daily basis by physical measurement and by MRI/MRS on a weekly basis. Treatment routes were via intraperitoneal injection using various CAD between 1 μg and 0.001 μg per animal on a M, W, F injection schedule. The animals were terminated by CO2 when the tumors had become 1.0 cm in diameter. Lung metastases were counted.
Various biomodulators were tested in vivo for their effects on canine glioma tumors established and monitored as above for mice, but in nude rats.
The histology stain toluidine blue is in the lower right hand position for orientation.

P-815 mastocytoma cells = test: P-815 cytotoxic T lympholysis / cell mediated lympholysis; type: cell-based, mouse; settings: hydrocortisone 2 mg day -2; hydroxyurea 10^-5 M
Method: In this case the P-815 is injected into the H-2 incompatible host and in the Brunner and Cerotini model an antigen specific lympholysis event occurs with an optimum on day 11 at an effector/target ratio of 100:1 with 30% lysis. If the spleens of the injected animals are removed on day three there is no observable cytotoxicity; however, if the spleen cells are treated with biomodulator (in this case PWM at 100 ng) there is an enormous increase in the cytotoxicity event. […] Our model involves at least seven point cytotoxicity curves and for comparison purposes we calculate the slope, intercept and correlation coefficients, and then use that data for further analyses. The slope represents a measure of the efficiency of kill and in the biomodulator treated cells is approximately […] versus 0.24 for the control antigen driven response on day 11. This represents a seven fold increase in simple cytotoxicity efficiency. […]
P 815 mastocytoma cells are grown in culture or as an ascites (DBA H-2/d) and injected into C57BL/6J mice (H-2/b). […] The specificity of the response is assessed by testing the cytotoxicity against EL-4 cells ([…]) which are NK insensitive and histoincompatible with the original target. […]
Seven effector/target ratios are tested and the percent lysis calculated. […]

canine glioma (CG) cells = test: cell surface oligosaccharide display of canine glioma cells (lectin binding, Scatchard, Gibb's Free Energy); type: cell-based
Excerpt: Taken together these affinity differences account for almost 10 kcal of additional binding energy retrievable from interactions in the case of the IMR-90s which is unavailable to the CGs. […] This treatment regimen results in an increase in the Tg of the cells as well as changes in the proton linewidth of unfrozen water (shown below). […] This display more closely resembles that of the growth regulated IMR-90s. It should be noted that the actual lines on these figures are visual estimates however, the data in the boxes are calculated values. It is these values that are used to estimate the GFE for comparison purposes.
The cell surface oligosaccharide display was assessed by methods developed previously. In brief, cells from a sub-culturing were aliquotted into 96 well trays at 5×10^5 cells per ml, 100 μL aliquots. After 16 hours of culture the cells were washed, fixed, and blocked with 0.1% BSA/PBS. Optimal lectin concentrations (5 μg/ml)were used to give 80 to 90% saturation of the available sites. Three carbohydrate ligands at 10 μg concentrations in triplicate or quadruplicate were then used to prepare competition curves for the lectin binding. The Bound over Free (B/F) ratio was calculated and the Ligand microprocessor program was used to determine the optimal fit of the data to a polynomial generated model. The Gibb's Free Energy (GFE) was calculated from the Scatchard data on the competition assay by the following equation: GFE=-RT 1n Kequit. The proton NMR linewidth measurements were conducted as described previously.

canine glioma = canine glioma implanted in dog brain (Formula II / TF compounds); type: in vivo
Method: Canine glioma was implanted surgically into the brains of four outbred dogs (2×10^6 cells). This procedure normally causes death by tumor growth in 14-28 days. […]
Tumor progress was assessed at weekly intervals by NMR, employing GdDTPA as imaging agent. This method illuminates vascularization at the surface of the tumor, and provides images which correlate well with neuropathological observations.

HPBL / IMR-90 cells = test: biomodulator assay; type: cell-based, human
Excerpt: a. Biomodulators cause, at a concentration in the general range of 100 pM-1 μm, the differentiation of lymphocytes. This differentiation can be detected by, for example, the increased production of specific and non-specific antibodies in response to the presence of biomodulator in the culture medium, e.g., according to the HPBL method discussed above in C, or the alteration in the class of antibodies being produced by a cell line, e.g., from IgM to IgG, e.g., according to the method disclosed in the same reference.
b. Biomodulators cause, at a concentration in the general range of 100 pM-1 μm, the alteration of the cell surface oligosaccharide display of IMR-90 cells in culture as discussed in A. above.
Activity in both of these assays is a necessary and sufficient measure of whether or not a given substance is a biomodulator, as defined herein.

[3] = test system: T-independent antigen (TNP-Ficoll) response; test: in vivo humoral response to TNP-Ficoll (plaque assay); design: species or system mouse; settings: mice
Method: In this case both IgM and IgG hapten specific responses were recorded as well as non-antigen specific plaque responses (Ig-PFC) using a Protein A coated red blood cell target.
The TNP-Ficoll antigen is administered as the SRBC antigen was above, by i.p. injection and the response assessed by conjugating the TNP hapten directly to the SRBC target, thus obviating any potential "carrier" effect. […] In this case, a third experimental parameter has been added to the study, the production of non-specific immunoobulin (Ig-PFC). This parameter provides information on the general status of the humoral response regardless of antigen specificity. The TNP-Ficoll antigen does elicit a modest Ig-PFC response but little if any IgG specific response. […] In this case there is a very large specific and non-specific augmentation.

[4] = 10 nM, 12 × 4 h (so in the source)
[5] = pre-treated, 10 ng/kg I.P. M, W, F
[6] = 1 ng/kg I.P. begun same day as implantation

CC(C)OC(=O)C[C@H](O)C[C@@H](O)/C=C/c1c(C(C)C)nc(-c2ccccc2)n1-c1ccc(F)cc1 (relative stereo) [Compound IIe']
% Change (Tg) (Canine glioma cells; 10 nM, 72x2 h): 129% | Tg (Canine glioma cells; 10 nM, 72x2 h): 24.0 h | % Change (Tg) (Canine glioma cells; 10 nM, 72x3 h): 180% | Tg (Canine glioma cells; 10 nM, 72x3 h): 33.4 h | % Change (Tg) (Canine glioma cells; 10 nM, 72x4 h): 155% | Tg (Canine glioma cells; 10 nM, 72x4 h): 28.9 h | % Change (Tg) (Canine glioma cells; 10 nM, 72 h): 136% | contact inhibition (Canine glioma cells; cells approaching confluency): showed evidence of contact inhibition as the cells approached confluency | slowing of the growth rate (Canine glioma cells; three passages, 10 nM): 1.8 fold | Stimulation of IgG Production ([1]; 1&100 nM): 1990% | IgG production in words ([1]; HPBL): stimulated IgG production | activation at 0.1 µM ([1]; lower concentrations (100 nM), read-out: enhancement of IgG production): < 350% | % Change (Tg) [2, 4]: 414% | Tg [2, 4]: 109.6 h | % Change (Tg) ([2]; 10 nM, 72 × 2 h): 400% | Tg ([2]; 10 nM, 72 × 2 h): 106.2 h | % Change (Tg) ([2]; 10 nM, 72 × 3 h): 416% | Tg ([2]; 10 nM, 72 × 3 h): 110.3 h | % Change (Tg) ([2]; 10 nM, 72 h): 320% | prolongation of generation time ([2]; three passages, 10 nM): 4.16 fold | generation time after drug withdrawal ([2]; two passages, data not shown): returned to control levels

CC(C)OC(=O)C[C@H](O)C[C@H](O)/C=C/c1c(C(C)C)nc(-c2ccccc2)n1-c1ccc(F)cc1 [HHD-3]
effect on tumor growth (canine glioma tumors): showed no regression effect, just delay of the control growth pattern

CC(C)OC(=O)C[C@H](O)C[C@@H](O)/C=C/c1c(C(C)C)nc(-c2ccccc2)n1-c1ccc(F)cc1 [HHD-7]
effect on tumor growth (canine glioma tumors): showed the best regression

C[C@]12CCC(=O)C=C1CC[C@@H]1[C@@H]2[C@@H](O)C[C@@]2(C)[C@H]1CC[C@]2(O)C(=O)CO [Hydrocortisone]
influence on the biomodulator effect on CML (P-815 mastocytoma cells): reduced the biomodulator effect

NC(=O)NO [Hydroxyurea]
influence on the biomodulator effect on CML (P-815 mastocytoma cells): does not inhibit the biomodulator effect on CML

CC(C)OC(=O)C[C@H](O)C[C@H](O)/C=C/c1c(C(C)C)nc(-c2ccccc2)n1-c1ccc(F)cc1 [IId]
activation at 0.1 µM ([1]; 100 nM, read-out: Stimulation of IgG Production): 320%

O[C@H]1[C@H]2[C@H](O)CCCN2C[C@H]1O [Swainsonine (Sw)]
exposure time for increase in GFE (canine glioma (CG) cells): approximately 300 hours

CC(C)c1nc(-c2ccccc2)n(-c2ccc(F)cc2)c1/C=C/[C@H](O)C[C@H](O)CC(=O)O [TF-002]
later tumor status (canine glioma; later studies, data not shown): free of tumor | day of appearance of small tumor (canine glioma; [5]): 12 days | tumor regressed by day (canine glioma; [5]): ≤ 19 days

CC(C)c1c(/C=C/C(O)CC(O)CC(=O)O)n(-c2ccc(F)cc2)c2ccccc12 (stereo not drawn) [TF-004]
complete regression by day (canine glioma; [6]): ≤ 21 days | substantial regression by day (canine glioma; [6]): ≤ 15 days | complete regression by day (canine glioma; treatment begun on Day 11): ≤ 30 days | substantial regression by day (canine glioma; treatment begun on Day 11): ≤ 21 days

Cc1c(/C=C/C(O)CC(O)CC(=O)O)ccc2c1C(O)CC(C)C2 (stereo not drawn) [colletruncoic acid]
biomodulator activity (HPBL / IMR-90 cells): has been shown to have biomodulator activity

Dextran
PFC response to TNP-Ficoll [3]: some stimulatory effect; also recorded: marked cellular proliferation but little differentiative response
